ChEMBL document CHEMBL1201862, “PubChem BioAssay data set” (2004)
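Test compounds were applied to cells in 96-well plates for 48 hours at 5 doses. GI50 = concentration required for 50% inhibition of growth.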 Activity calls are given as the source filed them. Rule as the data show it: active = GI50 up to about 1.1 µM and inactive = higher.

Legend:
Assay in all cases: NCI-60 cell line screen, 48 h
CAKI-1 = tested on: CAKI-1
TK-10 = tested on: TK-10
OVCAR-8 = tested on: OVCAR-8
SF-295 = tested on: SF-295
IGROV-1 = tested on: IGROV-1
SK-MEL-5 = tested on: SK-MEL-5
RXF 393 = tested on: RXF 393
MDA-N = tested on: MDA-N
SW-620 = tested on: SW-620
HOP-92 = tested on: HOP-92
M14 = tested on: M14
RPMI-8226 = tested on: RPMI-8226
K562 = tested on: K562
HOP-62 = tested on: HOP-62
MCF7 = tested on: MCF7
SF-268 = tested on: SF-268
HT-29 = tested on: HT-29
SN12C = tested on: SN12C
MDA-MB-231 = tested on: MDA-MB-231
UO-31 = tested on: UO-31
SNB-19 = tested on: SNB-19
NCI-H460 = tested on: NCI-H460
Malme-3M = tested on: Malme-3M
SK-MEL-2 = tested on: SK-MEL-2
HCC 2998 = tested on: HCC 2998
U-251 = tested on: U-251
HCT-15 = tested on: HCT-15
OVCAR-4 = tested on: OVCAR-4
NCI/ADR-RES = tested on: NCI/ADR-RES
Hs-578T = tested on: Hs-578T
PC-3 = tested on: PC-3
COLO 205 = tested on: COLO 205
UACC-257 = tested on: UACC-257
LOX IMVI = tested on: LOX IMVI
NCI-H522 = tested on: NCI-H522
786-0 = tested on: 786-0
EKVX = tested on: EKVX
KM12 = tested on: KM12
SNB-75 = tested on: SNB-75
SR = tested on: SR
NCI-H23 = tested on: NCI-H23
ACHN = tested on: ACHN
MDA-MB-435 = tested on: MDA-MB-435
SF-539 = tested on: SF-539
UACC-62 = tested on: UACC-62
HCT-116 = tested on: HCT-116
MOLT-4 = tested on: MOLT-4
NCI-H226 = tested on: NCI-H226
BT-549 = tested on: BT-549
HL-60 = tested on: HL-60
OVCAR-5 = tested on: OVCAR-5
SK-OV-3 = tested on: SK-OV-3
A549 = tested on: A549
SK-MEL-28 = tested on: SK-MEL-28
A498 = tested on: A498
DU-145 = tested on: DU-145
OVCAR-3 = tested on: OVCAR-3

COc1ccc(-c2ncn(C[Si](C)(C)C)c2-c2ccc(OC)cc2)cc1
GI50 (CAKI-1): 5.85 µM (inactive) | GI50 (TK-10): 7.24 µM (inactive) | GI50 (OVCAR-8): 7.06 µM (inactive) | GI50 (SF-295): 4.24 µM (inactive) | GI50 (IGROV-1): 6.21 µM (inactive) | GI50 (SK-MEL-5): 2.54 µM (inactive) | GI50 (RXF 393): 6.25 µM (inactive) | GI50 (MDA-N): 3.1 µM (inactive) | GI50 (SW-620): 3.05 µM (inactive) | GI50 (HOP-92): 4.7 µM (inactive) | GI50 (M14): 3.59 µM (inactive) | GI50 (RPMI-8226): 1.69 µM (inactive) | GI50 (K562): 0.472 µM (active) | GI50 (HOP-62): 12.6 µM (inactive) | GI50 (MCF7): 8.59 µM (inactive) | GI50 (SF-268): 12.1 µM (inactive) | GI50 (HT-29): 2.84 µM (inactive) | GI50 (SN12C): 11 µM (inactive) | GI50 (MDA-MB-231): 12.9 µM (inactive) | GI50 (UO-31): 2.28 µM (inactive) | GI50 (SNB-19): 7.64 µM (inactive) | GI50 (NCI-H460): 3.77 µM (inactive) | GI50 (Malme-3M): 10.4 µM (inactive) | GI50 (SK-MEL-2): 7.08 µM (inactive) | GI50 (HCC 2998): 3.17 µM (inactive) | GI50 (U-251): 6.9 µM (inactive) | GI50 (HCT-15): 4.51 µM | GI50 (OVCAR-4): 7.82 µM (inactive) | GI50 (NCI/ADR-RES): 5.08 µM (inactive) | GI50 (Hs-578T): 12.5 µM (inactive) | GI50 (PC-3): 4.63 µM (inactive) | GI50 (COLO 205): 2.54 µM (inactive) | GI50 (UACC-257): 4.93 µM (inactive) | GI50 (LOX IMVI): 4.89 µM (inactive) | GI50 (NCI-H522): 4.28 µM (inactive) | GI50 (786-0): 5.15 µM (inactive) | GI50 (EKVX): 3.13 µM (inactive) | GI50 (KM12): 4.92 µM (inactive) | GI50 (SNB-75): 13.1 µM (inactive) | GI50 (SR): 6.19 µM (inactive) | GI50 (NCI-H23): 3.87 µM (inactive) | GI50 (ACHN): 7.55 µM (inactive) | GI50 (MDA-MB-435): 3.73 µM (inactive) | GI50 (SF-539): 10.5 µM (inactive) | GI50 (UACC-62): 3.2 µM (inactive) | GI50 (HCT-116): 2.92 µM (inactive) | GI50 (MOLT-4): 0.863 µM (active) | GI50 (NCI-H226): 4.8 µM (inactive) | GI50 (BT-549): 22.4 µM (inactive) | GI50 (HL-60): 1.72 µM (inactive) | GI50 (OVCAR-5): 5.02 µM (inactive) | GI50 (SK-OV-3): 20 µM (inactive) | GI50 (A549): 4.31 µM (inactive) | GI50 (SK-MEL-28): 2.33 µM (inactive)

O=CC1C[C@@H](N2C(=O)O[C@@H](c3ccccc3)[C@H]2c2ccccc2)[C@@H]1COCc1ccccc1 (some centres undefined)
GI50 (CAKI-1): 36.2 µM (inactive) | GI50 (TK-10): 20.1 µM (inactive) | GI50 (OVCAR-8): 21.2 µM (inactive) | GI50 (SF-295): 17.3 µM (inactive) | GI50 (IGROV-1): 18.2 µM (inactive) | GI50 (SK-MEL-5): 15.2 µM (inactive) | GI50 (RXF 393): 18.7 µM (inactive) | GI50 (MDA-N): 15 µM (inactive) | GI50 (SW-620): 21.5 µM (inactive) | GI50 (A498): 20.9 µM (inactive) | GI50 (HOP-92): 15 µM (inactive) | GI50 (M14): 19.1 µM (inactive) | GI50 (RPMI-8226): 17.9 µM (inactive) | GI50 (K562): 21.1 µM (inactive) | GI50 (DU-145): 17.7 µM (inactive) | GI50 (HOP-62): 18 µM (inactive) | GI50 (MCF7): 17.8 µM (inactive) | GI50 (SF-268): 17.3 µM (inactive) | GI50 (HT-29): 17.9 µM (inactive) | GI50 (SN12C): 17 µM (inactive) | GI50 (MDA-MB-231): 15.7 µM (inactive) | GI50 (UO-31): 15.2 µM (inactive) | GI50 (SNB-19): 19.9 µM (inactive) | GI50 (NCI-H460): 18.3 µM (inactive) | GI50 (Malme-3M): 17 µM (inactive) | GI50 (SK-MEL-2): 16.4 µM (inactive) | GI50 (HCC 2998): 15 µM (inactive) | GI50 (U-251): 16.6 µM (inactive) | GI50 (HCT-15): 18 µM | GI50 (OVCAR-4): 28.6 µM (inactive) | GI50 (NCI/ADR-RES): 26.6 µM (inactive) | GI50 (Hs-578T): 25.6 µM (inactive) | GI50 (PC-3): 19.5 µM (inactive) | GI50 (COLO 205): 19.9 µM (inactive) | GI50 (UACC-257): 17.9 µM (inactive) | GI50 (LOX IMVI): 17.7 µM (inactive) | GI50 (NCI-H522): 16.4 µM (inactive) | GI50 (786-0): 14.3 µM (inactive) | GI50 (EKVX): 20 µM (inactive) | GI50 (KM12): 43.5 µM (inactive) | GI50 (OVCAR-3): 14.8 µM (inactive) | GI50 (SR): 10.3 µM (inactive) | GI50 (NCI-H23): 17.6 µM (inactive) | GI50 (ACHN): 24.8 µM (inactive) | GI50 (MDA-MB-435): 18.2 µM (inactive) | GI50 (SF-539): 18.7 µM (inactive) | GI50 (UACC-62): 16.8 µM (inactive) | GI50 (HCT-116): 16.7 µM (inactive) | GI50 (MOLT-4): 6.04 µM (inactive) | GI50 (NCI-H226): 20.2 µM (inactive) | GI50 (BT-549): 20.3 µM (inactive) | GI50 (HL-60): 18.9 µM (inactive) | GI50 (OVCAR-5): 22.4 µM (inactive) | GI50 (A549): 29.9 µM (inactive) | GI50 (SK-MEL-28): 20 µM (inactive)
